# Read-outs that look alike come from different tables or passages of the source.
# Test system: Passive Cutaneous Anaphylaxis
# Experiment: Passive Cutaneous Anaphylaxis Test
# Format: in vivo, Donryu-strain male rats
# Conditions: Rattus norvegicus, dose required for 50% inhibition, rats sensitized with reagin serum, egg albumin challenge after 48 hours
# Experimental: A test solution containing a test compound was administered orally 1 hour before, or intraperitoneally 30 minutes before challenge. The animals were killed 30 minutes after challenge, the skin reflected, and the responses measured and scored 0 for diameter of wheal less than 5 mm, 1 for 5-10 mm,[…] 3 for 15-20 mm and 4 for more than 20 mm. The percentage inhibition was calculated using the formula: [formula]
# [1] = ip, 0.5 h, i.p., 30 minutes before challenge, read-out: ED50 i.p.
# [2] = po, 1 hour before challenge, read-out: ED50 p.o.
Structure (SMILES),ED50 [1] [mg/kg],ED50 [2] [mg/kg]
"CC(=O)c1ccc2oc3ncccc3c(=O)c2c1 [A, 7-acetyl-5-oxo-5H-[1]benzopyrano[2,3-b]pyridine]",1,10
"CC(C)C(=O)c1ccc2oc3ncccc3c(=O)c2c1 [B, 7isobutyryl-5-oxo-5H-[1]benzopyrano[2,3-b]pyridine]",1,25 to 50
"O=C(O)c1ccc2oc3ncccc3c(=O)c2c1 [C, 5-oxo-5H-[1]benzopyrano[2,3-b]pyridine-7-carboxylic acid]",2,25
"O=C([O-])c1ccc2oc3nc(-c4ccccc4)ccc3c(=O)c2c1.[Na+] [D, sodium 2-phenyl-5-oxo-5H-[1]benzopyrano[2,3-b]pyridine-7-carboxylate]",1,40

# — patent US3931199A, “Benzopyrano and benzothiopyrano [2,3-6] pyridines” (Yoshitomi Pharmaceutical Industries, Ltd., priority 1973, dated 1976)
